Measurements as given in patent publication US20170320870A1 (Medical Research Council Technology, priority 2009, published 2017).

Each compound was assayed against T1, LRRK2 wild type (recombinant human, catalytic domain amino acids 970-2527, GST-tagged) (Homo sapiens, UniProt Q5S007) (assay: LRRK2 wild type protein kinase assay ([γ-33P] ATP, peptide substrate […]), IC50). Settings: LRRK2 (variant not given); read-out: Potency score, LRRK2 IC50.
T1 construct: The wild type used was recombinant human, catalytic domain (amino acids 970-2527) GST-tagged, expressed in insect cells; GST; purchased Invitrogen Corporation PV4873; host or cells: insect cells
T1 sequence (Q5S007 970-2527): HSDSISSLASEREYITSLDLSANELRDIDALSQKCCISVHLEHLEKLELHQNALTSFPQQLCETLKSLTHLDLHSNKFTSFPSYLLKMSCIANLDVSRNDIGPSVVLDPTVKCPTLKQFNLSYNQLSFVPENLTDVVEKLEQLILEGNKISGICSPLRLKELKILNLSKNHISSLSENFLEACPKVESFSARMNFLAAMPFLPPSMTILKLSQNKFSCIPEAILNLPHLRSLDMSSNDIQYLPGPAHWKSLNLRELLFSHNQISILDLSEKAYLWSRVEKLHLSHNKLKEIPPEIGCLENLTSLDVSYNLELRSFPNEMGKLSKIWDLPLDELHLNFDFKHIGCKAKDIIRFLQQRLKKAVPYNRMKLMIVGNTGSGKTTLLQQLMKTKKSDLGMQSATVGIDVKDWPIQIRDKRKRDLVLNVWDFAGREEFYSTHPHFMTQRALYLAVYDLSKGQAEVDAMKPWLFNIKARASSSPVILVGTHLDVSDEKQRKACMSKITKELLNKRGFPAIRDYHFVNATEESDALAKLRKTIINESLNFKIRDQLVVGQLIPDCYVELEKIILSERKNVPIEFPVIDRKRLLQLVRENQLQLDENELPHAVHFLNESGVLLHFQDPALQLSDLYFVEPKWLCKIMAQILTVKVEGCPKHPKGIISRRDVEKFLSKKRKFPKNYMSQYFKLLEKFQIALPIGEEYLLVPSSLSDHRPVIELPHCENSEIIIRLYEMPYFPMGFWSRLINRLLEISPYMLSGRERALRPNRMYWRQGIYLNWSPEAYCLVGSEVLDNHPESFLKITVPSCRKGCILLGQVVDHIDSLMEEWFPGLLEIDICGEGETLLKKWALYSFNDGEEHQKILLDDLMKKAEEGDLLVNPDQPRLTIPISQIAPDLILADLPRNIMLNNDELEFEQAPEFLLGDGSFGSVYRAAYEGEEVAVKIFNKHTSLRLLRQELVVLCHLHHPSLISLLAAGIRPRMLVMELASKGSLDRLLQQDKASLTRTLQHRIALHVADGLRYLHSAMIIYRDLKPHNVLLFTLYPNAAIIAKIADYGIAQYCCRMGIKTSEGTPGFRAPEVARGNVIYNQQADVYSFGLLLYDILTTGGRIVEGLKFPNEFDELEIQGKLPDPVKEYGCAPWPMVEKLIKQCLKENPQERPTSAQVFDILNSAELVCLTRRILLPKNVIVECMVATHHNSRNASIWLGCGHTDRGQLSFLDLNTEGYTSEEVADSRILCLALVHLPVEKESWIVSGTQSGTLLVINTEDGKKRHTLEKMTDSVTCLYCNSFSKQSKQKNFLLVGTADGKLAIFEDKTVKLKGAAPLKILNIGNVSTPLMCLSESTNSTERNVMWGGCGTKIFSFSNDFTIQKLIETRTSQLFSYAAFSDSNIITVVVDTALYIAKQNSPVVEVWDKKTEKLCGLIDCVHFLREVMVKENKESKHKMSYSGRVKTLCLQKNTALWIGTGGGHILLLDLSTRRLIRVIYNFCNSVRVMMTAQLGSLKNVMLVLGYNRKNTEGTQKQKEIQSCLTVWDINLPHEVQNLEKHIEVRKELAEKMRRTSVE
Format: biochemical
How it was run: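 IC50 derived from duplicate 10-point titrations, with 33P incorporation into a 100 μM peptide counted after P81 filter capture. Roughly 5 nM unactivated kinase reacted with Mg/[γ-33P]ATP for 180 min at room temperature (~21 °C), pH 7.5 Tris buffer containing 10 mM MgCl2, EGTA and DTT; acid-quenched.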

Question: How did the IC50 turn out when `O=C(Nc1ccc(CCc2n[nH]c3ccnc(NC4CCCCC4)c23)cc1)c1cccc(F)c1` [Example 275, N-{4-[2-(4-Cyclohexylamino-1H-pyrazolo[4,3-c]pyridin-3-yl)-ethyl]-phenyl}-3-fluoro-benzamide] was run?
Answer: The IC50 was < 100 nM.

Question: For `N#Cc1cccc(C(=O)Nc2ccc(CCc3n[nH]c4ccnc(NC5CCCCC5)c34)cc2)c1` [Example 276, 3-Cyano-N-{4-[2-(4-cyclohexylamino-1H-pyrazolo[4,3-c]pyridin-3-yl)-ethyl]-phenyl}-benzamide], which IC50 is on record?
Answer: Its IC50 is < 100 nM.

Question: `Cc1n[nH]c2ccnc(OC(C)C)c12` [Example 277, 4-isopropoxy-3-methyl-1H-pyrazolo[4,3-c]pyridine] was tested. Which IC50 did it give?
Answer: Its IC50 is < 100 nM.

Question: Which IC50 does the source give for `Cc1n[nH]c2ccnc(OCC3CCCCC3)c12` [Example 278, 4-Cyclohexyl-methoxy-3-methyl-1H-pyrazolo[4,3-c] pyridine] here?
Answer: Its IC50 is 100 to 1000 nM.

Question: How did the IC50 turn out when `Cc1n[nH]c2ccnc(OCC(F)(F)F)c12` [Example 279, 3-Methyl-4-(2,2,2-trifluoro-ethoxy)-1H-pyrazolo [4,3-c]pyridine] was run?
Answer: Its IC50 is 100 to 1000 nM.

Question: For `Cc1n[nH]c2ccnc(OCC(C)C)c12` [Example 280, 4-Isobutoxy-3-methyl-1H-pyrazolo[4,3-c]pyridine], which IC50 is on record?
Answer: Its IC50 is < 100 nM.

Question: `Cc1n[nH]c2ccnc(OC3CCC3)c12` [Example 281, 4-Cyclobutoxy-3-methyl-1H-pyrazolo[4,3-c]pyridine] was tested. Which IC50 did it give?
Answer: Its IC50 is 100 to 1000 nM.

Question: Which IC50 does the source give for `Cc1n[nH]c2ccnc(OCCC(C)C)c12` [Example 282, 3-Methyl-4-(3-methyl-butoxy)-1H-pyrazolo[4,3-c] pyridine] here?
Answer: Its IC50 is 100 to 1000 nM.

Question: With `Cc1n[nH]c2ccnc(OC3CCCCCC3)c12` [Example 283, 4-Cycloheptyloxy-3-methyl-1H-pyrazolo[4,3-c] pyridine] as the compound, how does the IC50 read?
Answer: Its IC50 is < 100 nM.

Question: With `CC[C@H](C)COc1nccc2[nH]nc(C)c12` [Example 284, 3-Methyl-4-((S)-2-methyl-butoxy)-1H-pyrazolo[4,3-c]pyridine] as the compound, how does the IC50 read?
Answer: Its IC50 is < 100 nM.

Question: Which IC50 does the source give for `CCC[C@H](C)Oc1nccc2[nH]nc(C)c12` [Example 285, 3-Methyl-4-((S)-1-methyl-butoxy)-1H-pyrazolo[4,3-c]pyridine] here?
Answer: The IC50 was 100 to 1000 nM.

Question: For `CCC[C@@H](C)Oc1nccc2[nH]nc(C)c12` [Example 286, 3-Methyl-4-((R)-1-methyl-butoxy)-1H-pyrazolo[4,3-c]pyridine], which IC50 is on record?
Answer: Its IC50 is 100 to 1000 nM.

Question: How did the IC50 turn out when `CO[C@@H](C)COc1nccc2[nH]nc(C)c12` [Example 287] was run?
Answer: Its IC50 is 1000 to 10000 nM.

Question: For `Cc1n[nH]c2ccnc(O[C@H](C)C(C)C)c12` [Example 288, 4-((R)-1,2-Dimethyl-propoxy)-3-methyl-1H-pyrazolo [4,3-c]pyridine], which IC50 is on record?
Answer: The IC50 was < 100 nM.

Question: For `Cc1n[nH]c2ccnc(OC3CCCC3(C)C)c12` (centres unmarked) [Example 289, 4-(2,2-Dimethyl-cyclopentyloxy)-3-methyl-1H-pyrazolo[4,3-c]pyridine], which IC50 is on record?
Answer: The IC50 was 100 to 1000 nM.

Question: With `Cc1n[nH]c2ccnc(OCc3ccccc3)c12` [Example 290, 4-Benzyloxy-3-methyl-1H-pyrazolo[4,3-c]pyridine] as the compound, how does the IC50 read?
Answer: The IC50 was 100 to 1000 nM.

Question: For `Cc1n[nH]c2ccnc(O[C@@H](C)C(C)C)c12` [Example 292, 4-((S)-1,2-Dimethyl-propoxy)-3-methyl-1H-pyrazolo [4,3-c]pyridine], which IC50 is on record?
Answer: Its IC50 is 100 to 1000 nM.

Question: How did the IC50 turn out when `Cc1n[nH]c2ccnc(O[C@H]3CC[C@H](C)CC3)c12` [Example 294, Trans-3-Methyl-4-(4-methyl-cyclohexyloxy)-1H-pyrazolo[4,3-c]pyridine] was run?
Answer: Its IC50 is < 100 nM.

Question: `Cc1n[nH]c2ccnc(OCCC(F)(F)F)c12` [Example 295, 3-Methyl-4-(3,3,3-trifluoro-propoxy)-1H-pyrazolo[4,3-c]pyridine] was tested. Which IC50 did it give?
Answer: The IC50 was 100 to 1000 nM.

Question: How did the IC50 turn out when `Cc1n[nH]c2ccnc(O[C@@H]3CCOC3)c12` [Example 297, 3-Methyl-4-[(R)-(tetrahydro-furan-3-yl)oxy]-1H-pyrazolo[4,3-c]pyridine] was run?
Answer: The IC50 was 100 to 1000 nM.

Question: With `Cc1n[nH]c2ccnc(O[C@H](C)Cc3ccccc3)c12` [Example 299, 3-Methyl-4-((R)-1-methyl-2-phenyl-ethoxy)-1H-pyrazolo[4,3-c]pyridine] as the compound, how does the IC50 read?
Answer: Its IC50 is < 100 nM.

Question: Which IC50 does the source give for `Cc1n[nH]c2ccnc(O[C@@H](C)Cc3ccccc3)c12` [Example 300, 3-Methyl-4-((S)-1-methyl-2-phenyl-ethoxy)-1H-pyrazolo[4,3-c]pyridine] here?
Answer: The IC50 was 100 to 1000 nM.

Question: With `Cc1n[nH]c2ccnc(NCCCO)c12` [Example 301, 3-(3-Methyl-1H-pyrazolo[4,3-c]pyridin-4-ylamino)-propan-1-ol] as the compound, how does the IC50 read?
Answer: Its IC50 is 1000 to 10000 nM.

Question: How did the IC50 turn out when `CC(=O)NCCNc1nccc2[nH]nc(C)c12` [Example 302, N-[2-(3-Methyl-1H-pyrazolo[4,3-c]pyridin-4-ylamino)-ethyl]-acetamide] was run?
Answer: The IC50 was 1000 to 10000 nM.

Question: `Cc1n[nH]c2ccnc(NCc3ccco3)c12` [Example 303, Furan-2-ylmethyl-(3-methyl-1H-pyrazolo[4,3-c]pyridin-4-yl)-amine] was tested. Which IC50 did it give?
Answer: Its IC50 is 1000 to 10000 nM.

Question: How did the IC50 turn out when `Cc1n[nH]c2ccnc(NCC3CCCO3)c12` (centres unmarked) [Example 304, (3-Methyl-1H-pyrazolo[4,3-c]pyridin-4-yl)-(tetrahydro-furan-2-ylmethyl)-amine] was run?
Answer: Its IC50 is 1000 to 10000 nM.

Question: With `Cc1n[nH]c2ccnc(Nc3ccc(Cl)c(Cl)c3)c12` [Example 305, (3,4-Dichloro-phenyl)-(3-methyl-1H-pyrazolo[4,3-c]pyridin-4-yl)-amine] as the compound, how does the IC50 read?
Answer: Its IC50 is 100 to 1000 nM.

Question: `Cc1n[nH]c2ccnc(Nc3ccc(Cl)cc3Cl)c12` [Example 306, (2,4-Dichloro-phenyl)-(3-methyl-1H-pyrazolo[4,3-c]pyridin-4-yl)-amine] was tested. Which IC50 did it give?
Answer: The IC50 was 100 to 1000 nM.

Question: How did the IC50 turn out when `Cc1n[nH]c2ccnc(Nc3ccc(F)c(Cl)c3)c12` [Example 307, (3-Chloro-4-fluoro-phenyl)-(3-methyl-1H-pyrazolo[4,3-c]pyridin-4-yl)-amine] was run?
Answer: Its IC50 is 100 to 1000 nM.

Question: For `Cc1n[nH]c2ccnc(Nc3cc(F)ccc3F)c12` [Example 308, (2,5-Difluoro-phenyl)-(3-methyl-1H-pyrazolo[4,3-c]pyridin-4-yl)-amine], which IC50 is on record?
Answer: Its IC50 is 100 to 1000 nM.

Question: `Cc1n[nH]c2ccnc(Nc3ccccc3Cl)c12` [Example 309, (2-Chloro-phenyl)-(3-methyl-1H-pyrazolo[4,3-c]pyridin-4-yl)-amine] was tested. Which IC50 did it give?
Answer: The IC50 was 100 to 1000 nM.

Question: For `Cc1n[nH]c2ccnc(Nc3ccc(Cl)cc3)c12` [Example 310, (4-Chloro-phenyl)-(3-methyl-1H-pyrazolo[4,3-c]pyridin-4-yl)-amine], which IC50 is on record?
Answer: Its IC50 is 100 to 1000 nM.

Question: `Cc1n[nH]c2ccnc(Nc3ccc(F)cc3)c12` [Example 311, (4-Fluoro-phenyl)-(3-methyl-1H-pyrazolo[4,3-c]pyridin-4-yl)-amine] was tested. Which IC50 did it give?
Answer: Its IC50 is 100 to 1000 nM.

Question: Which IC50 does the source give for `Cc1n[nH]c2ccnc(NCc3ccccn3)c12` [Example 312, (3-Methyl-1H-pyrazolo[4,3-c]pyridin-4-yl)-pyridin-2-ylmethyl-amine] here?
Answer: Its IC50 is 1000 to 10000 nM.

Question: With `Cc1n[nH]c2ccnc(Nc3ccc4ncsc4c3)c12` [Example 313, Benzothiazol-6-yl-(3-methyl-1H-pyrazolo[4,3-c]pyridin-4-yl)-amine] as the compound, how does the IC50 read?
Answer: Its IC50 is 100 to 1000 nM.

Question: Which IC50 does the source give for `Cc1n[nH]c2ccnc(NCc3cccc(Cl)c3)c12` [Example 314, (3-Chloro-benzyl)-(3-methyl-1H-pyrazolo[4,3-c]pyridin-4-yl)-amine] here?
Answer: Its IC50 is 1000 to 10000 nM.

Question: With `Cc1n[nH]c2ccnc(NCc3ccccc3Cl)c12` [Example 315, (2-Chloro-benzyl)-(3-methyl-1H-pyrazolo[4,3-c]pyridin-4-yl)-amine] as the compound, how does the IC50 read?
Answer: Its IC50 is 100 to 1000 nM.

Question: `Cc1n[nH]c2ccnc(NCc3ccc(F)cc3)c12` [Example 316, (4-Fluoro-benzyl)-(3-methyl-1H-pyrazolo[4,3-c]pyridin-4-yl)-amine] was tested. Which IC50 did it give?
Answer: Its IC50 is 1000 to 10000 nM.

Question: Which IC50 does the source give for `Cc1n[nH]c2ccnc(NCc3cccc(F)c3)c12` [Example 317, (3-Fluoro-benzyl)-(3-methyl-1H-pyrazolo[4,3-c]pyridin-4-yl)-amine] here?
Answer: The IC50 was 1000 to 10000 nM.

Question: Which IC50 does the source give for `Cc1ccc(Nc2nccc3[nH]nc(C)c23)cc1` [Example 318, (4-Methyl-phenyl)-(3-methyl-1H-pyrazolo[4,3-c]pyridin-4-yl)-amine] here?
Answer: Its IC50 is < 100 nM.

Question: For `Cc1cccc(Nc2nccc3[nH]nc(C)c23)c1` [Example 319, (3-Methyl-phenyl)-(3-methyl-1H-pyrazolo[4,3-c]pyridin-4-yl)-amine], which IC50 is on record?
Answer: Its IC50 is 100 to 1000 nM.

Question: For `Cc1ccccc1Nc1nccc2[nH]nc(C)c12` [Example 320, (2-Methyl-phenyl)-(3-methyl-1H-pyrazolo[4,3-c]pyridin-4-yl)-amine], which IC50 is on record?
Answer: Its IC50 is 100 to 1000 nM.

Question: `Cc1n[nH]c2ccnc(Nc3cccc(CO)c3)c12` [Example 321, [3-(3-Methyl-1H-pyrazolo[4,3-c]pyridin-4-ylamino)-phenyl]-methanol] was tested. Which IC50 did it give?
Answer: Its IC50 is 100 to 1000 nM.

Question: `Cc1n[nH]c2ccnc(Nc3ccc(S(C)(=O)=O)cc3)c12` [Example 322, (4-Methanesulfonyl-phenyl)-(3-methyl-1H-pyrazolo[4,3-c]pyridin-4-yl)-amine] was tested. Which IC50 did it give?
Answer: Its IC50 is 1000 to 10000 nM.

Question: For `Cc1cc(C)n(CCNc2nccc3[nH]nc(C)c23)n1` [Example 323, [2-(3,5-Dimethyl-pyrazol-1-yl)-ethyl]-(3-methyl-1H-pyrazolo[4,3-c]pyridin-4-yl)-amine], which IC50 is on record?
Answer: The IC50 was 1000 to 10000 nM.

Question: `Cc1n[nH]c2ccnc(NCCCN3CCCC3=O)c12` [Example 324, 1-[3-(3-Methyl-1H-pyrazolo[4,3-c]pyridin-4-ylamino)-propyl]-pyrrolidin-2-one] was tested. Which IC50 did it give?
Answer: The IC50 was 1000 to 10000 nM.

Question: Which IC50 does the source give for `Cc1n[nH]c2ccnc(NCC3CCCCC3)c12` [Example 325, Cyclohexylmethyl-(3-methyl-1H-pyrazolo[4,3-c]pyridin-4-yl)-amine] here?
Answer: The IC50 was 1000 to 10000 nM.

Question: `Cc1n[nH]c2ccnc(NCc3ccc(C(F)(F)F)cc3)c12` [Example 326, (3-Methyl-1H-pyrazolo[4,3-c]pyridin-4-yl)-4-(4-trifluoromethyl-benzyl)-amine] was tested. Which IC50 did it give?
Answer: Its IC50 is 1000 to 10000 nM.

Question: For `Cc1n[nH]c2ccnc(NCc3ccc(C#N)cc3)c12` [Example 327, 4-[(3-Methyl-1H-pyrazolo[4,3-c]pyridin-4-ylamino)-methyl]-benzonitrile], which IC50 is on record?
Answer: Its IC50 is 1000 to 10000 nM.

Question: For `Cc1nc2cc(Nc3nccc4[nH]nc(C)c34)ccc2s1` [Example 328, (2-Methyl-benzothiazol-5-yl)-(3-methyl-1H-pyrazolo[4,3-c]pyridin-4-yl)-amine], which IC50 is on record?
Answer: The IC50 was 1000 to 10000 nM.
